Measurements from ChEMBL document CHEMBL5226279, “Mercaptoacetamide: A promising zinc-binding group for the discovery of selective histone deacetylase 6 inhibitors” (Eur J Med Chem, 2021).
Values after ≈ are worked out from the molar mass of the structure shown. One block for each compound: values may come before it.

Key:
[1] = AUC in mouse at 400 mg/kg, ip; format: ADME, organism-based; design: dose 400 mg/kg, route ip; settings: in vivo
[2] = Stability in rat liver microsomes assessed as half life; format: ADME, Microsome
[3] = Apparent permeability across apical to basolateral side in human Caco-2 cells; format: ADME, cell-based
[4] = Stability in human plasma assessed as half life; format: ADME, cell-free
[5] = Half life in mouse at 400 mg/kg, ip; format: ADME, organism-based; settings: in vivo
[6] = test system: N2a; assay: Antialzheimer activity in mouse N2a cells overexpressing hAPP assessed as reduction in human amyloid beta 40 level at 1 to 5 uM incubated for 24 hrs by ELISA relative to control; format: functional; design: scale not given: the % may be the effect or the level left; settings: dose 1-5 µM
[7] = Stability in dog liver microsomes assessed as half life; format: ADME, Canis lupus familiaris, Microsome
[8] = Stability in rat plasma assessed as half life; format: ADME, cell-free
[9] = test system: N2a; assay: Antialzheimer activity in mouse N2a cells overexpressing hAPP assessed as reduction in human amyloid beta 42 level at 1 to 5 uM incubated for 24 hrs by ELISA relative to control; format: functional; design: scale not given: the % may be the effect or the level left; settings: dose 1-5 µM
[10] = Antialzheimer activity in rat Primary cortical neurons assessed as reduction in amyloid beta 40 level incubated for 24 hrs by ELISA relative to control; format: functional, Cortical neurone; design: scale not given: the % may be the effect or the level left
[11] = target: T1, Protein deacetylase HDAC6 (Homo sapiens, UniProt Q9UBN7); assay: Inhibition of HDAC6 (unknown origin)
T1 sequence (Q9UBN7 whole entry): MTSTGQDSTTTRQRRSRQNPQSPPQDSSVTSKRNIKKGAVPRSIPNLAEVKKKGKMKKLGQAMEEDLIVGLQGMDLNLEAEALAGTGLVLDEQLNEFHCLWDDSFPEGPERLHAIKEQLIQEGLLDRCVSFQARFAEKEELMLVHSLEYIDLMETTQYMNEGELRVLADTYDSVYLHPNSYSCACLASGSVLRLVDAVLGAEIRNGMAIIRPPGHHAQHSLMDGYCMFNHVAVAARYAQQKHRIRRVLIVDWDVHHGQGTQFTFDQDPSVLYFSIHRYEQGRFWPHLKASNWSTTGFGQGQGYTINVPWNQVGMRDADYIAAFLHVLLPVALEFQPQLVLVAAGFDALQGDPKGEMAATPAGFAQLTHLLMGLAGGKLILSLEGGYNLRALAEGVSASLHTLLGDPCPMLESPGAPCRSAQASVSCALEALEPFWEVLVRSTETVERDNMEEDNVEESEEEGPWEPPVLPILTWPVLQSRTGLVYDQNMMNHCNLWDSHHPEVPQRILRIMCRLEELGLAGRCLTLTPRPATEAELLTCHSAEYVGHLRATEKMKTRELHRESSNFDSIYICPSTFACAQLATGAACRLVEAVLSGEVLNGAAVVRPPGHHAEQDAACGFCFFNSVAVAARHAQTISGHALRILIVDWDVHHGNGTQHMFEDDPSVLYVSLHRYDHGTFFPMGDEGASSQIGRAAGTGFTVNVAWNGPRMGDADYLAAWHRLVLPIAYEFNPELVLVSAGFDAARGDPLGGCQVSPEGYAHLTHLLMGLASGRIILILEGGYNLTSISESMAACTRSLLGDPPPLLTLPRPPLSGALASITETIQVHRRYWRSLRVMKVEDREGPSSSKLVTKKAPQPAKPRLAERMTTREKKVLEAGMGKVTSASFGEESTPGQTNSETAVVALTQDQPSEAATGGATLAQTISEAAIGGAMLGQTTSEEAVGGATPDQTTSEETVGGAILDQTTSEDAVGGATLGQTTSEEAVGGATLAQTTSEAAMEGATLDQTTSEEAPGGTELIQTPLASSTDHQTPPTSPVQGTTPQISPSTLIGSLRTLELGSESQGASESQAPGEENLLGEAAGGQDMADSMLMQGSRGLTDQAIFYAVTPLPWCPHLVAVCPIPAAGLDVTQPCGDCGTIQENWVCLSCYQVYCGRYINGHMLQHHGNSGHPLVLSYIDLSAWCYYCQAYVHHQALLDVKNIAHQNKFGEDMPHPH

[12] = Cmax in mouse at 400 mg/kg, ip; format: ADME, organism-based; design: dose 400 mg/kg, route ip; settings: in vivo
[13] = Stability in porcine plasma assessed as half life; format: ADME, cell-free, Sus scrofa; settings: pig
[14] = Stability in mouse plasma assessed as half life; format: ADME, cell-free
[15] = Tmax in mouse at 400 mg/kg, ip; format: ADME, organism-based; settings: in vivo
[16] = Stability in human liver microsomes assessed as half life; format: ADME, Microsome
[17] = Solubility of compound in HCl at pH 1.2 at 37 degreeC measured after 24 hrs; format: physicochemical
[18] = Apparent permeability across basolateral to apical side in human Caco-2 cells; format: ADME, cell-based
[19] = Solubility of compound in PBS at pH 7.4 at 37 degreeC measured after 24 hrs; format: physicochemical
[20] = Clearance in mouse at 400 mg/kg, ip; format: ADME, organism-based; settings: in vivo
[21] = Lipophilicity, logD of the compound at 37 degreeC; format: physicochemical; settings: octanol/water
[22] = target: T2, Histone deacetylase 8 (Homo sapiens, UniProt Q9BY41); assay: Inhibition of human HDAC8 incubated for 90 mins by fluorescence assay
T2 sequence (Q9BY41 whole entry): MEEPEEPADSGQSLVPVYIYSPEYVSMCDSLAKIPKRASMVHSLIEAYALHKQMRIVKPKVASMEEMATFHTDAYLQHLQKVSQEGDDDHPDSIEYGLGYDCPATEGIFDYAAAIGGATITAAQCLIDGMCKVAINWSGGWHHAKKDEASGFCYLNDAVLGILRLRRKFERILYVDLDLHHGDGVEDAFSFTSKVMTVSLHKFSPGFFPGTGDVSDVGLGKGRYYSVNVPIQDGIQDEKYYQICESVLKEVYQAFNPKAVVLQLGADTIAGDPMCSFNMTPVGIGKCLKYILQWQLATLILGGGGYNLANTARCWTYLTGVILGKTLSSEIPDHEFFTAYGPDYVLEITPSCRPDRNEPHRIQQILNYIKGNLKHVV

[23] = target: T1, Protein deacetylase HDAC6; assay: Inhibition of human HDAC6
[24] = target: T3, Histone deacetylase 1 (Homo sapiens, UniProt Q13547); assay: Inhibition of human HDAC1
[25] = target: Histone deacetylase 3 (Homo sapiens, UniProt O15379); assay: Inhibition of human HDAC3 using FAM-labeled acetylated peptide as substrate incubated for 17 hrs by fluorescence based assay
[26] = target: T1, Protein deacetylase HDAC6; assay: Inhibition of human HDAC6 using FAM-labeled acetylated peptide as substrate incubated for 17 hrs by fluorescence based assay
[27] = target: Histone deacetylase 2 (Homo sapiens, UniProt Q92769); assay: Inhibition of human HDAC2 using FAM-labeled acetylated peptide as substrate incubated for 17 hrs by fluorescence based assay
[28] = target: T3, Histone deacetylase 1; assay: Inhibition of human HDAC1 using FAM-labeled acetylated peptide as substrate incubated for 17 hrs by fluorescence based assay
[29] = target: T2, Histone deacetylase 8; assay: Inhibition of human HDAC8 using FAM-labeled acetylated peptide as substrate incubated for 17 hrs by fluorescence based assay
[30] = target: T4, Polyamine deacetylase HDAC10 (Homo sapiens, UniProt Q969S8); assay: Inhibition of human HDAC10 using FAM-labeled acetylated peptide as substrate incubated for 17 hrs by fluorescence based assay
T4 sequence (Q969S8 whole entry): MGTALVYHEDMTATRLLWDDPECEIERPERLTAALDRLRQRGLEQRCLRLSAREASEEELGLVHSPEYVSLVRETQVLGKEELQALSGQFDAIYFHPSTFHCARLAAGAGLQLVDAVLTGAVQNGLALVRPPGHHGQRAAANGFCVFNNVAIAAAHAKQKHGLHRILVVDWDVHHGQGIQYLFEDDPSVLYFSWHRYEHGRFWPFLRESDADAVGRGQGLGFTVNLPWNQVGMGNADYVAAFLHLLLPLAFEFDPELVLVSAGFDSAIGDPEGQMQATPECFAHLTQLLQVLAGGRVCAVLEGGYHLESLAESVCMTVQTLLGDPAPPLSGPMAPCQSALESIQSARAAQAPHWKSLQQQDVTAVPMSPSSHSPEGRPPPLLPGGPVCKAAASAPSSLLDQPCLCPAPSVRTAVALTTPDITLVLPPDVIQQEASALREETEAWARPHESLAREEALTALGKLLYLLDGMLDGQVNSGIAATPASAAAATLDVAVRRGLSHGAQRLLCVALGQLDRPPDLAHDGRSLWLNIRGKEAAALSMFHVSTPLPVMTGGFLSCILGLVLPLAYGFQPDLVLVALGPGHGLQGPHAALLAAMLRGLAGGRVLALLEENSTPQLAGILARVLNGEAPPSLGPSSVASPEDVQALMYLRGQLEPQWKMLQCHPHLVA

[31] = target: Histone deacetylase 4 (Homo sapiens, UniProt P56524); assay: Inhibition of human recombinant HDAC4 incubated for 17 hrs
[32] = target: T5, Histone deacetylase 11 (Homo sapiens, UniProt Q96DB2); assay: Inhibition of human recombinant HDAC11 incubated for 17 hrs
T5 sequence (Q96DB2 whole entry): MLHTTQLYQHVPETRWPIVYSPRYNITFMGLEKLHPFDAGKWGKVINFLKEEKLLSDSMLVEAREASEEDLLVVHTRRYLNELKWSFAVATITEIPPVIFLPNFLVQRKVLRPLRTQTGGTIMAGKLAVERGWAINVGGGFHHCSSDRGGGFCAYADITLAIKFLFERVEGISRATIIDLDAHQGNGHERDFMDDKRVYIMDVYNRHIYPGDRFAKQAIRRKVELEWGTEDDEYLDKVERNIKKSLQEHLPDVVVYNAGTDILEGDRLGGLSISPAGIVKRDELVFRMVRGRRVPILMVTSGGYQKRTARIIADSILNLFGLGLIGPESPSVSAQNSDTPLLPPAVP

[33] = target: T6, Histone deacetylase 7 (Homo sapiens, UniProt Q8WUI4); assay: Inhibition of human recombinant HDAC7 incubated for 17 hrs
T6 sequence (Q8WUI4 whole entry): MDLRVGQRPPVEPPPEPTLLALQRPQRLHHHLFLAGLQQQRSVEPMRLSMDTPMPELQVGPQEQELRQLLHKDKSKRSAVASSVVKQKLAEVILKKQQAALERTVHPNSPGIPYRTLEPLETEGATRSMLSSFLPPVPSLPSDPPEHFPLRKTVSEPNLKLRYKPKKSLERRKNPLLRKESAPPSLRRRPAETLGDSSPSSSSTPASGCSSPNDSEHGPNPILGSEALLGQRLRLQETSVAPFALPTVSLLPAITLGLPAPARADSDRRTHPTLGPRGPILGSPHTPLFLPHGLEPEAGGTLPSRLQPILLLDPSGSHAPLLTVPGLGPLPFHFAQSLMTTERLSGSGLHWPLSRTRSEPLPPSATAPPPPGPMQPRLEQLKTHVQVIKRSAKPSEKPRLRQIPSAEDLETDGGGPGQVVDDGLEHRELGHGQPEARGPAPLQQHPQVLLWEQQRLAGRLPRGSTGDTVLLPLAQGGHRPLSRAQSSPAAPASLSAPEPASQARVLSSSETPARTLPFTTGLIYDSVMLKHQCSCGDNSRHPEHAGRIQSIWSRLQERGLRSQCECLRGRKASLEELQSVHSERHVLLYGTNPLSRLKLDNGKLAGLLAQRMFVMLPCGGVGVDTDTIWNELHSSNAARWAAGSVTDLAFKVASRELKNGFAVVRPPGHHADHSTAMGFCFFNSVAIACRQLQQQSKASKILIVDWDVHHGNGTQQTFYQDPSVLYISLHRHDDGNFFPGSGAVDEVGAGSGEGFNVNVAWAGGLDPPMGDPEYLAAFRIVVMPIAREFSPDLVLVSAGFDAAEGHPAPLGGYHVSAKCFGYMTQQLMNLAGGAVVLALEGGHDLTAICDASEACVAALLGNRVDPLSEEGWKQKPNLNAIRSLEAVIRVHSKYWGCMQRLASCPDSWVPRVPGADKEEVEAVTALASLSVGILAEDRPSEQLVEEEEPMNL

T3 sequence (Q13547 whole entry): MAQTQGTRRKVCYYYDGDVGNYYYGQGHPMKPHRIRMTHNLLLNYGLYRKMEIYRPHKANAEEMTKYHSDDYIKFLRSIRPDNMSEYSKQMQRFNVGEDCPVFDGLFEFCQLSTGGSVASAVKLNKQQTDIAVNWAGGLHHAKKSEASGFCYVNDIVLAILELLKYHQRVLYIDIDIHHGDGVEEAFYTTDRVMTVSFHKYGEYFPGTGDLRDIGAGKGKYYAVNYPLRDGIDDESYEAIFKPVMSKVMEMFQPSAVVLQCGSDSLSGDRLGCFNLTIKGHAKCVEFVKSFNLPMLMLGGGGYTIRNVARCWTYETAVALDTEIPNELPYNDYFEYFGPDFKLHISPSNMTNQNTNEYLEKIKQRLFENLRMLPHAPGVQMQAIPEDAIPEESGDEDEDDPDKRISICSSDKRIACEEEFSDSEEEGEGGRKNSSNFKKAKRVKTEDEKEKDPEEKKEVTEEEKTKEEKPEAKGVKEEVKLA
Sequence of Histone deacetylase 3 (O15379 whole entry): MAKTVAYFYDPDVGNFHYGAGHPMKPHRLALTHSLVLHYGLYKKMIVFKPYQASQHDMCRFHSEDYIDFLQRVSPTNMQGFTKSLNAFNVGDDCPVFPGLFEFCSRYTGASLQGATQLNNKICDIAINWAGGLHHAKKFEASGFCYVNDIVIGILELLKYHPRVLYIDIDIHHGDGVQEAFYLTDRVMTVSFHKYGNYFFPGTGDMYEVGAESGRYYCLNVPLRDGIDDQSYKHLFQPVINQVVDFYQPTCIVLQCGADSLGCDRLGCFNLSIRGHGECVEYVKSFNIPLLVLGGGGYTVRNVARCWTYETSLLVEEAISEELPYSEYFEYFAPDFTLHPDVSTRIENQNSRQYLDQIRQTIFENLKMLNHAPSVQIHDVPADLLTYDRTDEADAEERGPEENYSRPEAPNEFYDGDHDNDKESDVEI
Sequence of Histone deacetylase 4 (P56524 whole entry): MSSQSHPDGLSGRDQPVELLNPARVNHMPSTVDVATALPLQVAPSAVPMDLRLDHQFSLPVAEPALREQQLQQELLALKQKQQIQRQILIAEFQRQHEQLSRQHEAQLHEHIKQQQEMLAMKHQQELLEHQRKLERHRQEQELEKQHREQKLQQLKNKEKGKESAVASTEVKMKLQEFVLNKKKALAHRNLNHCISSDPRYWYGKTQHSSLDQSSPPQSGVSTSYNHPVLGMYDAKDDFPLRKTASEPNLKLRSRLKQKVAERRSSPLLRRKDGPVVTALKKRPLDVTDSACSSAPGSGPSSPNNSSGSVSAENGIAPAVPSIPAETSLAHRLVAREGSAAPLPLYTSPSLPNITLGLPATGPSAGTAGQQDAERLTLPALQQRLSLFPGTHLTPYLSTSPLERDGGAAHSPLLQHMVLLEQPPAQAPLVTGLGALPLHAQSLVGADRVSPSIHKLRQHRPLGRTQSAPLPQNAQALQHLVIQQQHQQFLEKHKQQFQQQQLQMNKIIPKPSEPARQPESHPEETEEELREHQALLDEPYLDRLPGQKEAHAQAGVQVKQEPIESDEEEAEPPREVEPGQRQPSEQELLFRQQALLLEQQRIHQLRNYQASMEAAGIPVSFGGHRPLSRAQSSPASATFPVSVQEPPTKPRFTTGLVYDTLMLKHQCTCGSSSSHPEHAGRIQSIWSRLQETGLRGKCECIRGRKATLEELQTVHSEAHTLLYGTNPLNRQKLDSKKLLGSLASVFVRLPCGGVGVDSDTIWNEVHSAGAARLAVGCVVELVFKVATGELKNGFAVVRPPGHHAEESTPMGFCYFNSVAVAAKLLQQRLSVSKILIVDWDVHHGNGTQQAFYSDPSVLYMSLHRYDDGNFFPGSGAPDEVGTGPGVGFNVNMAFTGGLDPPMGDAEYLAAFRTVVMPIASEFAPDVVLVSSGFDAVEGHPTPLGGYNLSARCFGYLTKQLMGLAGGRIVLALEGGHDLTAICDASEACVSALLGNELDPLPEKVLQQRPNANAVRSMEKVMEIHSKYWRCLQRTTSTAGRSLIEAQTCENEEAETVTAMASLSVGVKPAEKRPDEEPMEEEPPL
Sequence of Histone deacetylase 2 (Q92769 whole entry): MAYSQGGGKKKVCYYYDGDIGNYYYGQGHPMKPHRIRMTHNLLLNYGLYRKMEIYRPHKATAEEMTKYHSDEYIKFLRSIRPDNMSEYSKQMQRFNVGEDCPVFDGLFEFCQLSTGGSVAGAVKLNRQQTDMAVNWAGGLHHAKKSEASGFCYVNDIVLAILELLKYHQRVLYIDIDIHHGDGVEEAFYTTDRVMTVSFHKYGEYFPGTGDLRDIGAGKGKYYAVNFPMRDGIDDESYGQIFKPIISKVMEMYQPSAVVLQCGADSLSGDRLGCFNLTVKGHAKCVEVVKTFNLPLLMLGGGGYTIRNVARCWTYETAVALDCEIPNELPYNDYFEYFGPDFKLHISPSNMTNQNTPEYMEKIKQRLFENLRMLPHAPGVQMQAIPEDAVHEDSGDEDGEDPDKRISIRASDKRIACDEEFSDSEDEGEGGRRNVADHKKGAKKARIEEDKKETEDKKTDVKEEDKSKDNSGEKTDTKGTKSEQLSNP

AUC [1]: 4.97 µM·h | half-life [2]: 1.1 h | Papp A→B [3]: 15 ×10⁻⁶ cm/s | half-life [4]: 1.32 h | half-life [5]: 2.2 h | half-life [7]: 1.2 h | half-life [8]: 1.53 h | IC50 [11]: 0.02 µM | Cmax [12]: 1810 nM | half-life [13]: 1.15 h | half-life [14]: 0.967 h | Tmax [15]: 0.5 h | half-life [16]: 1.38 h | solubility at 24 h [17]: 1000 µg/mL (≈ 3020 µM) | Papp B→A [18]: 24.7 ×10⁻⁶ cm/s | solubility at 24 h [19]: 150 µg/mL (≈ 453 µM) | CL/F [20]: 67.5 mL/min | logD [21]: 2.64
SMILES: O=C(CS)NCCCCCC(=O)Nc1cccc2cccnc12
Activity [6]: 20% | Activity [9]: 20% | Activity [10]: 20%

IC50 [31]: > 30 µM | IC50 [32]: 0.432 µM | IC50 [33]: > 30 µM
SMILES: Nc1ccc(F)cc1NC(=O)c1ccc(CNC(=O)/C=C/c2cccnc2)cc1

The next lines start with the compound.

SMILES: O=C(CS)NCCCCCC(=O)Nc1ccccc1
IC50 [22]: 200 µM

SMILES: O=C(/C=C/c1ccccc1Cl)NO
IC50 [23]: 0.1 µM | IC50 [24]: 2.2 µM

SMILES: N[C@@H](Cc1c[nH]c2ccccc12)C(=O)Nc1ccccc1-c1ccc(NC(=O)CCCCCNC(=O)CS)cc1
IC50 [25]: 4.33 µM | IC50 [26]: 0.66 µM | IC50 [27]: > 30 µM | IC50 [28]: 7.09 µM | IC50 [29]: 11.3 µM | IC50 [30]: > 30 µM
